EPA's ToxValDB 9.5

Experiments:
[1] = system: Canidae; settings: chronic; duration: 1 years; oral; diet; M/F; Dog Other; increased serum cholesterol, alkaline phosphatase, and relative liver and kidney weight, and decreased alanine transaminase and adrenal …
[2] = system: Mus musculus; settings: chronic; duration: 2 years; inhalation; M/F; degenerative lesions of the nasal cavity
[3] = system: Mus musculus; settings: short-term, duration: 28 days, oral, gavage, M, C57BL/6
[4] = system: Rattus norvegicus; settings: oral, gavage; for NEL / LEL: Crl:CD(SD) BR; for LOAEL / NOAEL: Sprague-Dawley
[5] = Liver: Catalase (CAT) Activity, Liver + Multi-organ: Interleukin 1 Beta (IL-1b) mRNA + Spleen: Interleukin 6 (IL-6) mRNA
[6] = Liver: Superoxide Dismutase (SOD) Activity + Multi-organ: Catalase (CAT) Activity, Blood + Multi-organ: Interleukin 1 Beta (IL-1b), Serum + …
[7] = chronic, duration: 92 days, M, Blood: Hematocrit (HCT) + Blood: Hemoglobin (HGB) + Blood: Red Cell Distribution Width (RDW) + Blood: Reticulocytes + Blood: Total Protein (…
[8] = chronic, duration: 92 days, M, Blood: Mean Corpuscular Volume (MCV) + Blood: Red Blood Cell (RBC) + Kidney: Tubular Hypertrophy + Liver: Liver Weight, Relative + Liver: …
[9] = chronic, duration: 92 days, M, Cardiovascular: Aorta: Aorta Histopathology + Cardiovascular: Heart: Heart Histopathology + Cardiovascular: Heart: Heart Weight, Absolute + …
[10] = chronic, duration: 92 days, M, Hematologic: Blood: Activated Partial Thromboplastin Time (APTT) + Hematologic: Blood: Hematocrit (HCT) + Hematologic: Blood: Hemoglobin (…
[11] = chronic, duration: 93 days, F, Blood: Hematocrit (HCT) + Blood: Hemoglobin (HGB) + Blood: Red Blood Cell (RBC) + Blood: Red Cell Distribution Width (RDW) + Blood: …
[12] = chronic, duration: 93 days, F, Liver: Liver Weight, Absolute + Liver: Liver Weight, Relative
[13] = chronic, duration: 93 days, F, Cardiovascular: Aorta: Aorta Histopathology + Cardiovascular: Heart: Heart Histopathology + Cardiovascular: Heart: Heart Weight, Absolute + …
[14] = chronic, duration: 93 days, F, Hematologic: Blood: Activated Partial Thromboplastin Time (APTT) + Hematologic: Blood: Hematocrit (HCT) + Hematologic: Blood: Hemoglobin (…
[15] = developmental, duration: 14 days, M/F, generation: F1, F1: Pelvis: Litters with Pelvis, Incomplete Ossification + F1: Pelvis: Pelvis, Incomplete Ossification + F1: Rib: Litters with Rib, Wavy + …
[16] = developmental, duration: 14 days, M/F, generation: F1, F1: Skull: Litters with Skull, Incomplete Ossification + F1: Skull: Skull, Incomplete Ossification
[17] = developmental, duration: 14 days, M/F, generation: F1, F1: Developmental: Head: Fetal Alterations Count, Head Malformations + F1: Developmental: Head: Litters with Head Malformations + F1: …
[18] = developmental, duration: 14 days, M/F, generation: F1, F1: Developmental: Rib: Rib, Wavy + F1: Developmental: Skull: Litters with Skull, Incomplete Ossification + F1: Developmental: Sternebra: …
[19] = reproduction developmental, duration: 14 days, F, generation: P0, P0: Fur: Stained Fur + P0: Hair/Fur: Alopecia + P0: Intestine: Soft or Liquid Feces + P0: Whole Body: Hunched Posture + P0: Whole Body: …
[20] = reproduction developmental, duration: 14 days, F, generation: P0, P0: Developmental: Uterus: Implantation
[21] = reproduction developmental, duration: 14 days, F, generation: P0, P0: Developmental: Uterus: Implantation + P0: Developmental: Uterus: Resorptions, Mean/Litter + P0: Developmental: Whole Body: No. Male Pups…
[22] = reproduction developmental, duration: 14 days, F, generation: P0, P0: Developmental: Whole Body: No. Male Pups per No. of Pups Sexed + P0: General Toxicity: Whole Body: Hunched Posture + P0: General …

## CCCN(CCC)c1c([N+](=O)[O-])cc(S(N)(=O)=O)cc1[N+](=O)[O-] [Oryzalin]
[1]
  LEL: 50 mg/kg-day
  NOEL: 5 mg/kg-day

## CCC1CO1 (centres undefined) [1,2-Epoxybutane]
[2]
  LOAEL: 147 mg/m3

## OCCC(F)(F)C(F)(F)C(F)(F)C(F)(F)C(F)(F)C(F)(F)C(F)(F)C(F)(F)F [2-(Perfluorooctyl)ethanol]
[3]; [5]
  LEL: 100 mg/kg-day
  NEL: 30 mg/kg-day
[3]; Liver: Glutathione (GSH), Liver + Multi-organ: Chemokine C-X-C motif Ligand 1 (CXCL-1), Serum + Multi-organ: Interleukin 6 (IL-6) mRNA + …
  NEL: 100 mg/kg-day
[3]; Liver: Liver Histopathology + Liver: Liver Weight, Absolute + Liver: Liver Weight, Relative + Multi-organ: Chemokine C-X-C motif Ligand 1 (…
  LEL: 10 mg/kg-day
[3]; [6]
  LEL: 30 mg/kg-day
  NEL: 10 mg/kg-day
[4]; chronic, duration: 92 days, M, Adrenal: Adrenal Gland Histopathology + Adrenal: Adrenal Gland Weight, Absolute + Adrenal: Adrenal Gland Weight, Relative + Aorta: Aorta …
  NEL: 125 mg/kg-day
[4]; [7]
  LEL: 125 mg/kg-day
  NEL: 25 mg/kg-day
[4]; [8]
  LEL: 25 mg/kg-day
  NEL: 5 mg/kg-day
[4]; chronic, duration: 92 days, M, Liver: Cholesterol (CHOL), Total, Blood + Thyroid: Colloid Alteration
  LEL: 1 mg/kg-day
[4]; [9]
  LOAEL: 1 mg/kg-day
  NOAEL: 125 mg/kg-day
[4]; chronic, duration: 92 days, M, Endocrine: Adrenal: Adrenal Gland Histopathology + Endocrine: Adrenal: Adrenal Gland Weight, Absolute + Endocrine: Adrenal: Adrenal Gland …
  LOAEL: 1 mg/kg-day
[4]; [10]
  LOAEL: 25 mg/kg-day
  NOAEL: 5 mg/kg-day
[4]; chronic, duration: 93 days, F, Adrenal: Adrenal Gland Histopathology + Adrenal: Adrenal Gland Weight, Absolute + Adrenal: Adrenal Gland Weight, Relative + Aorta: Aorta …
  NEL: 125 mg/kg-day
[4]; [11]
  LEL: 125 mg/kg-day
  NEL: 25 mg/kg-day
[4]; [12]
  LEL: 25 mg/kg-day
  NEL: 5 mg/kg-day
[4]; [13]
  LOAEL: 1 mg/kg-day
  NOAEL: 125 mg/kg-day
[4]; chronic, duration: 93 days, F, Endocrine: Adrenal: Adrenal Gland Histopathology + Endocrine: Adrenal: Adrenal Gland Weight, Absolute + Endocrine: Adrenal: Adrenal Gland …
  LOAEL: 1 mg/kg-day
[4]; [14]
  LOAEL: 25 mg/kg-day
  NOAEL: 5 mg/kg-day
[4]; developmental, duration: 14 days, M/F, generation: F1, F1: Head: Fetal Alterations Count, Head Malformations + F1: Head: Litters with Head Malformations + F1: Kidney: Litters with Small Renal …
  NEL: 500 mg/kg-day
[4]; [15]
  LEL: 500 mg/kg-day
  NEL: 200 mg/kg-day
[4]; [16]
  LEL: 200 mg/kg-day
  NEL: 50 mg/kg-day
[4]; [17]
  LOAEL: 200 mg/kg-day
  NOAEL: 20 mg/kg-day
[4]; [18]
  LOAEL: 500 mg/kg-day
  NOAEL: 200 mg/kg-day
[4]; [19]
  LEL: 500 mg/kg-day
  NEL: 200 mg/kg-day
[4]; reproduction developmental, duration: 14 days, F, generation: P0, P0: Ovary: Corpora Lutea + P0: Uterus: Implantation + P0: Uterus: Resorptions, Mean/Litter + P0: Whole Body: Male Pups per Pups Sexed
  NEL: 500 mg/kg-day
[4]; [20]
  LOAEL: 500 mg/kg-day
  NOAEL: 200 mg/kg-day
[4]; [21]
  LOAEL: 200 mg/kg-day
  NOAEL: 20 mg/kg-day
[4]; reproduction developmental, duration: 14 days, F, generation: P0, P0: Developmental: Uterus: Resorptions, Mean/Litter
  NOAEL: 500 mg/kg-day
[4]; [22]
  LOAEL: 200 mg/kg-day
  NOAEL: 20 mg/kg-day
